Reference: patent US8541410B2, “Sulfur substituted sulfonylaminocarboxylic acid N-arylamides, their preparation, their use and pharmaceutical preparations comprising them” (Sanofi-aventis Deutschland GmbH, priority 1998, dated 2013)

The molecules below were run against T1, soluble guanylate cyclase (sGC) (Bos taurus, UniProt P16068) (assay: Activation of the soluble guanylate cyclase (cGMP enzyme immunoassay)). Settings: concentration c 10 μM; n-fold stimulation of basal enzyme activity.
T1 construct: The sGC which was employed had been isolated from bovine lung; from tissue; host or cells: bovine lung
T1 sequence (P16068 1-619): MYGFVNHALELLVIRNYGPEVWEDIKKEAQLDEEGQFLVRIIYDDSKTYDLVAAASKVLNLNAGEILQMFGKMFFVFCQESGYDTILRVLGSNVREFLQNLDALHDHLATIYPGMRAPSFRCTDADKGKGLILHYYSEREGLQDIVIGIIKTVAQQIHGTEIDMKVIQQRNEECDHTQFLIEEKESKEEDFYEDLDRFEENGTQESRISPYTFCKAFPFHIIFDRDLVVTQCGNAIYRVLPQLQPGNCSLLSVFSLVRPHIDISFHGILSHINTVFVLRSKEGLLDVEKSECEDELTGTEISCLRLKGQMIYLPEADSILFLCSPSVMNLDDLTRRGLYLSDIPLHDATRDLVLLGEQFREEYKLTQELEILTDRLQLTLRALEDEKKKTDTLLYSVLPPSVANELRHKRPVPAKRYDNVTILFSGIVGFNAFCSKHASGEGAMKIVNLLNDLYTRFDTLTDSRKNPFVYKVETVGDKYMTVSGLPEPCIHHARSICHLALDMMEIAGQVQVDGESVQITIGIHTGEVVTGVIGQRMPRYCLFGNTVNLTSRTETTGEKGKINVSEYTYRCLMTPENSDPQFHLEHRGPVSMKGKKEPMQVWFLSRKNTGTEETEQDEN
T1 sequence (P19687 1-691 partner): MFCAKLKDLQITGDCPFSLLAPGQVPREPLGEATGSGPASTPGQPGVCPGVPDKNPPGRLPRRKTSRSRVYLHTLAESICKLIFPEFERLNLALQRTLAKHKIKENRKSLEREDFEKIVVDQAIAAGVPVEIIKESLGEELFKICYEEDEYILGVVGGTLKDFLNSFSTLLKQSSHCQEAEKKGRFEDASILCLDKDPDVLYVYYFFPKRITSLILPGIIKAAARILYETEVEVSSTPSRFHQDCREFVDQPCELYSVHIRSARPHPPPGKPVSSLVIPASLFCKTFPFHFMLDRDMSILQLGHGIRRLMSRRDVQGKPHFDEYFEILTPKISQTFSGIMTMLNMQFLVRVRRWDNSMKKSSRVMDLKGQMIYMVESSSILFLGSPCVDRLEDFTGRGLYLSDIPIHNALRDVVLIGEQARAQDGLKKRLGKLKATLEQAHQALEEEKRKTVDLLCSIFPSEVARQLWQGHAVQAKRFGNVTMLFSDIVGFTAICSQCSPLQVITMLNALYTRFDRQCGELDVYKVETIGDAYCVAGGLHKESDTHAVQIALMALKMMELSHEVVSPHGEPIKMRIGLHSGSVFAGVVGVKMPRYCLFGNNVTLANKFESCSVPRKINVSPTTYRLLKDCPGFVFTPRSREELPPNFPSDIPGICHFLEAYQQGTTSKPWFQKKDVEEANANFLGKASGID
Assay type: biochemical, bovine
Experimental: The activation of the soluble guanylate cyclase (sGC) which catalyzes the conversion of guanosine triphosphate (GTP) into cyclic guanosine monophosphate (cGMP) and pyrophosphate, by the compounds according to the invention was quantified with the aid of an enzyme immunoassay (EIA) from Amersham. For this purpose the substances to be tested were initially incubated with sGC in microtiter plates, and the amount of the cGMP formed was then determined.
The sGC which was employed had been isolated from bovine lung (see Methods in Enzymology, Volume 195, p. 377). The test solutions (100 μl per well) contained 50 mM triethanolamine (TEA) buffer (pH 7.5), 3 mM MgCl2, 3 mM reduced glutathione (GSH), 0.1 mM GTP, 1 mM 3-isobutyl-1-methylxanthine (IBMX), suitably diluted enzyme solution and the substance to be tested or, in the control experiments, the solvent. The substances to be tested were dissolved in dimethyl sulfoxide (DMSO) and the solution was diluted with DMSO/water, so that the final concentration (c) of the substance to be tested in the test solution had the value indicated in the table. The DMSO concentration in the test solution was 5% (v/v). The reaction was initiated by addition of the sGC. The reaction mixture was incubated at 37° C. for 15 to 20 minutes and then stopped by ice-cooling and addition of the stop reagent (50 mM EDTA, pH 8.0). An aliquot of 50 μl was taken and used for determining the cGMP content using the acetylation protocol of the Amersham cGMP-EIA kit. The absorption of the samples was measured at 450 nm (reference wavelength 620 nm) in a microtiter plate reader. The cGMP concentration was determined using a standard curve which was obtained under the same test conditions. The activation of sGC by a test substance is given as the n-fold stimulation of the basal enzyme activity which was found in the control experiments (using solvent instead of test substance) (calculated using the formula n-fold stimulation=[cGMP]test substance/[cGMP]control).

Structure (SMILES) | n-fold stimulation
COc1cc(NS(=O)(=O)c2ccc(Cl)s2)c(C(=O)Nc2ccc(S(=O)(=O)N(C)Cc3cccnc3)cc2)cc1OC.Cl [Example 191, 4,5-Dimethoxy-2-(5-chloro-thiophene-2-sulfonylamino)-N-(4-(N-methyl-N-(pyridin-3-yl-methyl)=aminosulfonyl)-phenyl)-benzamide hydrochloride] | 27.5
Cc1noc(C)c1S(=O)(=O)Nc1ccc(Cl)cc1C(=O)Nc1ccc(S(=O)(=O)N(C)Cc2cccnc2)cc1 [Example 209, 5-Chloro-2-(3,5-dimethyl-isoxazde-4-sulfonylamino)-N-(4-(N-methyl-N-(pyridin-3-yl-methyl)-aminosulfonyl)-phenyl)-benzamide] | 28.5

Next, values leading:

n-fold stimulation | Structure (SMILES)
16.2 | Cc1cc(NC(=O)c2cc(Cl)ccc2NS(=O)(=O)c2ccc(Cl)cc2)ccc1S(=O)(=O)N1CCCCC1 [Example 195, 5-Chloro-2-(4-chloro-phenylsulfonylamino)-N-(4-(piperidine-1-sulfonyl)-3-methyl-phenyl)-benzamide]
26.7 | Cc1cc(NC(=O)c2cc(Cl)ccc2NS(=O)(=O)c2ccc(Cl)cc2)ccc1S(=O)(=O)N1CCOCC1 [Example 192, 5-Chloro-2-(4-chloro-phenylsulfonylamino)-N-(4-(morpholine-4-sulfonyl)-3-methyl-phenyl)-benzamide]

Same assay, conditions: concentration c 50 μM; n-fold stimulation of basal enzyme activity

Structure (SMILES) | n-fold stimulation
COc1cc(NS(=O)(=O)c2ccc(Cl)cc2)c(C(=O)Nc2ccc(S(=O)(=O)N3CCC(O)CC3)cc2)cc1OC [Example 89, 2-(4-Chloro-phenylsulfonylamino)-N-(4-(4-hydroxy-piperidine-1-sulfonyl)-phenyl)-4,5-dimethoxy-benzamide] | 11.6
Cc1nn(C)c(Cl)c1S(=O)(=O)Nc1ccc(Cl)cc1C(=O)Nc1ccc(S(=O)(=O)N2CCOCC2)cc1 [Example 130, 5-Chloro-2-(5-chloro-1,3-dimethyl-pyrazole-4-sulfonyl-amino)-N-(4-(morpholine-4-sulfonyl)-phenyl)-benzamide] | 35.3
O=C(Nc1ccc(S(=O)(=O)N2CCOCC2)cc1)c1cc(Cl)ccc1NS(=O)(=O)c1cccs1 [Example 136, 5-Chloro-N-(4-(morpholine-4-sulfonyl)-phenyl)-2-(thiophene-2-sulfonylamino)-benzamide] | 24.2
O=C(Nc1ccc(S(=O)(=O)N2CCOCC2)cc1)c1cc(Cl)ccc1NS(=O)(=O)c1cc(C(F)(F)F)cc(C(F)(F)F)c1 [Example 139, 2-(3,5-Bis-trifluoromethyl-phenylsulfonylamino)-5-chloro-N-(4-(morpholine-4-sulfonyl)-phenyl)-benzamide] | 21.9
O=C(Nc1ccc(S(=O)(=O)N2CCOCC2)cc1)c1cc(Cl)ccc1NS(=O)(=O)c1cccc(C(F)(F)F)c1 [Example 157, 5-Chloro-N-(4-(morpholine-4-sulfonyl)-phenyl)-2-(3-trifluoromethyl-phenylsulfonylamino)-benzamide] | 4.6
COc1cc(NS(=O)(=O)c2ccc(Cl)s2)c(C(=O)Nc2ccc(S(=O)(=O)N3CCSCC3)cc2)cc1OC [Example 206, 4,5-Dimethoxy-2-(5-chloro-thiophene-2-sulfonylamino)-N-(4-(thiomorpholine-4-sulfonyl)-phenyl)-benzamide] | 19.3
COc1cc(NS(=O)(=O)c2ccc(Cl)cc2)c(C(=O)Nc2ccc(S(=O)(=O)N3CC[S+]([O-])CC3)cc2)cc1OC [Example 176, 2-(4-Chloro-phenylsulfonylamino)-4,5-dimethoxy-N-(4-(1-oxo-thiomorpholine-4-sulfonyl)-phenyl)-benzamide] | 13.9
CCCCS(=O)(=O)Nc1ccc(Cl)cc1C(=O)Nc1ccc(S(=O)(=O)N2CCOCC2)cc1 [Example 156, 2-(Butyl-sulfonylamino)-5-chloro-N-(4-(morpholine-4-sulfonyl)-phenyl)-benzamide] | 7.8

Second part, the molecule after the results:

n-fold stimulation | Structure (SMILES)
24.6 | CC1CN(S(=O)(=O)c2ccc(NC(=O)c3cc(Cl)ccc3NS(=O)(=O)c3ccc(Cl)cc3)cc2)CC(C)O1 (stereo not shown) [Example 65, 5-Chloro-2-(4-chloro-phenylsulfonylamino)-N-(4-(2,6-dimethyl-morpholine-4-sulfonyl)-phenyl)-benzamide]
5.9 | COCCNS(=O)(=O)c1ccc(NC(=O)c2cc(Cl)ccc2NS(=O)(=O)c2ccc(Cl)cc2)cc1 [Example 77, 5-Chloro-2-(4-chloro-phenylsulfonylamino)-N-(4-(2-methoxy-ethylsulfamoyl)-phenyl)-benzamide]
16.5 | O=C(Nc1ccc(S(=O)(=O)N2CCN(CCO)CC2)cc1)c1cc(Cl)ccc1NS(=O)(=O)c1ccc(Cl)cc1 [Example 73, 5-Chloro-2-(4-chloro-phenylsulfonylamino)-N-(4-(4-(2-hydroxy-ethyl)-piperazine-1-sulfonyl)-phenyl)-benzamide]
12.5 | COc1cc(NS(=O)(=O)c2ccc(Cl)cc2)c(C(=O)Nc2ccc(S(=O)(=O)N3CCN(C)CC3)cc2)cc1OC [Example 87, 2-(4-Chloro-phenylsulfonylamino)-4,5-dimethoxy-N-(4-(4-methyl-piperazine-1-sulfonyl)-phenyl)-benzamide]
33 | C[C@@H]1CN(S(=O)(=O)c2ccc(NC(=O)c3cc(Cl)ccc3NS(=O)(=O)c3ccc(Cl)cc3)cc2)C[C@H](C)O1 [Example 66, 5-Chloro-2-(4-chloro-phenylsulfonylamino)-N-(4-(cis-2,6-dimethyl-morpholine-4-sulfonyl)-phenyl)-benzamide]
10.2 | O=C(Nc1ccc(S(=O)(=O)N2CCOCC2)cc1)c1cc(Cl)ccc1NS(=O)(=O)c1ccc(F)cc1 [Example 146, 5-Chloro-2-(4-fluoro-phenylsulfonylamino)-N-(4-(morpholine-4-sulfonyl)-phenyl)-benzamide]
23.9 | CN1CCN(S(=O)(=O)c2ccc(NC(=O)c3cc(Cl)ccc3NS(=O)(=O)c3ccc(Cl)cc3)cc2)CC1 [Example 64, 5-Chloro-2-(4-chloro-phenylsulfonylamino)-N-(4-(4-methyl-piperazine-1-sulfonyl)-phenyl)-benzamide]
28.3 | O=C(Nc1ccc(S(=O)(=O)N2CCOCC2)cc1)c1cc(Cl)ccc1NS(=O)(=O)c1ccc(Cl)c(Cl)c1 [Example 69, 5-Chloro-2-(3,4-dichloro-phenylsulfonylamino)-N-(4-(morpholine-4-sulfonyl)-phenyl)-benzamide]
15.4 | O=C(Nc1ccc(S(=O)(=O)N2CCOCC2)cc1)c1sccc1NS(=O)(=O)c1ccc(Cl)cc1 [Example 79, 3-(4-Chloro-phenylsulfonylamino)-N-(4-(morpholine-4-sulfonyl)-phenyl)-thiophene-2-carboxamide]
19.9 | O=C(Nc1ccc(S(=O)(=O)N2CCOCC2)cc1)c1cc(Cl)ccc1NS(=O)(=O)c1cccc([N+](=O)[O-])c1 [Example 151, 5-Chloro-N-(4-(morpholine-4-sulfonyl)-phenyl)-2-(3-nitro-phenylsulfonylamino)-benzamide]
